According to publication PMC12622802, “Potent kinase inhibitors from the Merck KGaA OGHL: Novel hits against Trypanosoma brucei with potential for repurposing” (PLOS Neglected Tropical Diseases, 2025):
Entries after “also recorded” stand apart in the source; their conditions may differ. Like-named read-outs stand apart in the source and are kept apart here.

How the values were obtained:
[1] = target: TANK-binding kinase 1 (TBK1); set-up: method as in ref 37 = [37]; 37 Dorsch D , Wucherer-Plietker M , Mueller TJ , Merkul E . 3-([1,2,3]triazole-4-yl)-pyrrolo[2,3-b]pyridine derivates . World Intellectual Property Organization . 2010 . https://patents.google.com/pat; conditions: cited from earlier work
[2] = tested on: bloodstream forms of T. b. brucei Lister 427; assay: Resazurin reduction growth inhibition assay against bloodstream forms of T. b. brucei; assay type: cell-based, Trypanosoma brucei brucei; conditions: 72 hours, read-out: IC50 ± SD (µM) T. b. b.
Description: Bloodstream forms of T. b. brucei Lister 427, a virulent laboratory strain of Trypanosoma brucei were cultured in HMI-9 medium as previously described. […] The resulting signal measured between 570 nm and 590 nm, is directly proportional to the quantity of viable parasites. […] After incubation, a working solution of resazurin (0.15 mg/mL in DPBS) was added to the plates in a 1:10 (v/v) ratio, followed by incubation for 4 hours at 37 °C with 5% CO2. Fluorescence was measured using an Infinite M200 microplate reader (Tecan) at excitation and emission wavelengths of 530 nm and 590 nm, respectively. Compound achieving ≥ 50% inhibition of trypanosomes were selected for further dose-response studies.
Compounds that adhered to the cutoff criterion (≥ 50% inhibition) were serially diluted and tested for their half-maximal inhibitory concentrations (IC50). […] Dose-response curves were generated using GraphPad Prism software (version 8.0). […]
Data were analysed using Microsoft Excel and GraphPad Prism 8.0. Nonlinear regression with a sigmoidal dose-response fit model was applied to the data to determine IC50 and CC50 values.

[3] = Cytotoxicity, resazurin reduction assay, HepG2; assay type: cell-based, human; conditions: human
Description: Vero E6 (African green monkey kidney), Raw264.7 (murine macrophages) and HepG2 (human hepatocyte carcinoma) cell lines, sourced from the American Type Culture Collection, were cultured in DMEM supplemented with 10% (v/v) heat-inactivated fetal bovine serum, 1% (v/v) non-essential amino acids, and 1% (v/v) penicillin-streptomycin. Cells were maintained at 37 °C in a 5% CO2 atmosphere. For cytotoxicity testing, they were seeded (90 µL) in 96-well plates at a density of 1x10^4 cells/well, in duplicate, and allowed to adhere overnight. Serial dilutions (50-0.08 µM) of the compounds were prepared, and 10 µL of each were incubated with the monolayer for 48 hours. Podophyllotoxin was tested as a positive control at 10 μM and 0.5% DMSO (100% cell viability) was used as negative control. Cell viability was then assessed using the resazurin reduction assay, as described above. The 50% cytotoxic concentration (CC50) was calculated using GraphPad Prism software (version 8.0), and selectivity indices (SIs) were determined by dividing the […].
Data were analysed using Microsoft Excel and GraphPad Prism 8.0. Nonlinear regression with a sigmoidal dose-response fit model was applied to the data to determine IC50 and CC50 values. Results represent the mean ± standard deviation (SD) from two independent experiments performed in duplicate.

[4] = tested on: bloodstream forms of T. b. brucei; assay: Trypanosome killing kinetics (time-kill assay); assay type: cell-based, Trypanosoma brucei brucei; conditions: 8IC50, 4IC50, IC50, 0.25IC50; over 72 hours
Description: (§1) To evaluate the killing kinetics of selected compounds, bloodstream forms of T. b. brucei (2 x 10⁵ cells/mL) were incubated in normal culture conditions in the presence of compounds at 8IC50, 4IC50, IC50, and 0.25IC50 concentrations in 24-well plates. Upon incubation, cultures were centrifuged at 0, 4, 8, 12, 24, 30, 36, 48, 60, and 72 hours’ time intervals at 2,500 rpm followed by motile trypanosomes enumeration using a Lumascope LS520 inverted microscope. To determine the mode of inhibition (parasitostatic or parasiticidal), a rescue experiment was conducted. Trypanosomes were exposed to the test doses (8IC50, 4IC50, IC50, and 0.25IC50) of the compounds for 4 hours. They were then washed three times with phosphate buffer saline (DPBS 1X), centrifuged at 2,500 rpm for 7 minutes, and resuspended in complete drug-free medium. These parasites were cultured under the same conditions, and motile organisms were enumerated with the Neubauer chamber at regular intervals over 72 hours. Data were plotted using GraphPad Prism 8.0 to determine the inhibition kinetics and classify the inhibitors as cidal or static. Pentamidine isethionate served as the reference compound and experiments were performed in duplicate.

[5] = Cytotoxicity, resazurin reduction assay, Raw264.7; assay type: cell-based, murine; conditions: mouse
Description: (§2) For cytotoxicity testing, they were seeded (90 µL) in 96-well plates at a density of 1x10^4 cells/well, in duplicate, and allowed to adhere overnight. […] Cell viability was then assessed using the resazurin reduction assay, as described above. […] Data were analysed using Microsoft Excel and GraphPad Prism 8.0. Nonlinear regression with a sigmoidal dose-response fit model was applied to the data to determine IC50 and CC50 values. Results represent the mean ± standard deviation (SD) from two independent experiments performed in duplicate.

[6] = tested on: bloodstream forms of T. b. brucei; assay: Rescue experiment (4 h exposure, washout, drug-free medium); assay type: cell-based, Trypanosoma brucei brucei; conditions: 72 hours monitoring, 4xIC50 and 8xIC50
Description: as §1

[7] = Cytotoxicity, resazurin reduction assay, Vero; assay type: cell-based; conditions: African green monkey
Description: as §2

normal cells = tested on: normal cells; set-up: method as in ref 37 = [37]; 37 Dorsch D , Wucherer-Plietker M , Mueller TJ , Merkul E . 3-([1,2,3]triazole-4-yl)-pyrrolo[2,3-b]pyridine derivates . World Intellectual Property Organization . 2010 . https://patents.google.com/pat; conditions: cited from earlier work
[8] = HAT regimens; cited from earlier work

Structure (SMILES) | IC50 [1] [nM] | IC50 ([2]; Trypanosoma brucei, 72 h, confirmation screen, powdered form) [µM] | IC50 ([2]; Trypanosoma brucei, 72 h, primary screen, DMSO stock solution, bloodstream form T. b. brucei Lister 427) [µM] | IC50 ([2]; primary screen, DMSO stock solution, bloodstream form T. b. brucei Lister 427) [µM] | CC50 at 48 h [3] [nM] | activity profile in time-kill assay (trypanocidal or cytostatic) [4] | CC50 at 48 h [5] [nM] | effect after short exposure and washout (reversible or irreversible) [6] | CC50 at 48 h [7] [nM] | CC50 (normal cells) [nM] | fatal encephalopathy, percentage of cases [8]
Cn1cc(-c2cnc3[nH]cc(-c4cn(Cc5cccc(F)c5F)nn4)c3c2)cn1 [OGHL00169, 3-(1-(2,3-difluorobenzyl)-1H-1,2,3-triazol-4-yl)-5-(1-methyl-1H-pyrazol-4-yl)-1H-pyrrolo[2,3-b]pyridine] | 0.196 | 0.25 ± 0.04 | ≤ 1 | 0.85 ± 0.02 | 50000 | strong trypanocidal activity | 12100 ± 1600 | irreversible trypanocidal activity; also recorded: irreversible trypanocidal effects | 2800 ± 30 | 1000 to 10000 | –
Nc1nc(N)nc(Nc2ccc([As]3SCC(CO)S3)cc2)n1 (centres unmarked) [melarsoprol] | – | – | – | – | – | – | – | – | – | – | 5–10%
